Test [1] deals with T1, Plasmodium falciparum lysyl t-RNA synthetase (Pf-KRS1) (Plasmodium falciparum, UniProt Q8IDJ8).
T1 construct: Pf KRS1-; made in house; host or cells: E. coli BL21 (DE3)
As to the kind of experiment: Pf-KRS1 inhibition biochemical assay (Kinase-Glo, ATP depletion). Particulars: read-out: Pf-KRS pIC50 (converted). The text has this:
Plasmodium falciparum Lysine tRNA Synthetase (KRS1) Biochemical Assay Methodology.
Lysine tRNA Synthetase (KRS1) is an enzyme which catalyses the esterification of L-Lysine to the appropriate transfer ribonucleic acid (tRNA), to form an aminoacyl-tRNA. Once the tRNA is charged, a ribosome transfers the amino acid from the tRNA onto a growing peptide, according to the genetic code.
The substrates of this reaction are L-lysine, and adenosine triphosphate (ATP), the overall reaction is: amino acid+tRNA+ATP→aminoacyl-tRNA+AMP+PPi
In this overall reaction AMP is adenosine monophosphate and PP; is inorganic pyrophosphate. The reaction progression in a biochemical assay can be tracked by the depletion of one of the substrates, in the case of this invention, ATP. This was done using the proprietary assay kit, Kinase Glo® Assay which is a luminescent kinase assay platform suitable for monitoring kinase activities using up to 10 μm ATP which is commercially available from the Promega Corporation of Madison, Wis., USA. The Kinase-Glo® Assay was performed in a single well of a multiwell plate by adding a volume of Kinase-Glo® Reagent equal to the volume of a completed kinase reaction and measuring luminescence. The resulting luminescent signal is correlated with the amount of ATP present and is inversely correlated with the amount of kinase activity. As such by use of this assay methodology a reduction of the luminescent signal is relative to the reduction in ATP as the reaction progresses. A compound which inhibits the action of KRS will show no drop in the luminescent signal from assay controls.
Assays were performed using both Plasmodium falciparum and human KRS to assess any selectivity of various test compounds.
Test compounds were solubilized in DMSO at a top concentration of 10 mM and serially diluted 1 in 3 to achieve a range of final assay concentrations of 50 μM to 2.5 nM in 10 μl reaction volume.
KRS was diluted to a working concentration of 75 nM in assay buffer (25 mM HEPES, 25 mM KOH, 10 mM MgCl2.6H2O, 50 mM KCl), and the following ‘Master Mix’ prepared in assay buffer: 0.1 mg/ml BSA, 250 μM DTT, 200 μM Spermine, 0.05% NP-40, ATP 3 μM for Pf KRS1 (4 μM for Hs KRS1), 0.4 mg/ml tRNA from Yeast, 60 μM L-Lysine, 0.5 U/ml Pyrophosphatase.
Plates were incubated at room temperature for 5 h for Pf KRS (2.5 hrs for HsKRS), then the assay stopped by the addition of 10 μl of The Kinase-Glo® Reagent Assay was performed in a single well of a multiwell plate by adding a volume of Kinase-Glo® Reagent which is commercially available from the Promega Corporation of Madison, Wis., USA. The plates were incubated in the dark for a further 15 mins before being read for luminescence on a BMG PHERAstar® FSX plate reader which is a multi-mode reader for use in high-throughput screening available from BMG Labtech if Cary, N.C., USA. Data were analysed by calculating the percentage inhibition compared to the maximum and minimum assay controls. Concentration effect curves were fitted using nonlinear regression within ActivityBase and IC50 values were determined using standard protocols.
Background: In Kinase-Glo more light means more ATP remaining.

Test [2] concerns Plasmodium falciparum strain 3D7. As to the kind of experiment: Plasmodium falciparum 3D7 in vitro growth inhibition (SYBRgreen I). It counts as cell-based. Particulars: Plasmodium falciparum, 3D7; read-out: pEC50 for Pf 3D7 (converted). As for the experimental part: Parasite Cultures and Cytotoxicity Assay Methodology for Plasmodium falciparum. […] Growth inhibition of the Plasmodium falciparum cultures was quantified in a 10-point dose response curve with a 1 in 3 dilution series from a top assay concentration of 50 μM. This 384 well plate based fluorescence assay utilises the binding of SYBRgreen I (Thermo Fisher Scientific/Invitrogen cat. no. S7585) to double stranded DNA, which greatly increases the fluorescent signal at 528 nm after excitation at 485 nm. Mefloquine was used as a drug control to monitor the quality of the assay (Z′=0.6 to 0.8, where Z′ is a measure of the discrimination between the positive and negative controls on a screen plate). Dose-response curves were determined from a minimum of 3 independent experiments. Compound bioactivity was expressed as EC50, the effective concentration of compound causing 50% parasite death.

In a further test the test system is Cryptosporidium parvum. Description: In vitro Crytosporidium inhibition assay. Format: cell-based. Particulars: Cryptosporidium parvum; read-out: Cryptosporidium parvum pEC50 (converted). The text has this: Assay Method for Measurement of In Vitro Inhibition of Crytosporidium.
These experiments were run in accordance with the method of Besssoff et. al. Antimicrob. Agents Chemother. 2013, 57:1804-1814. Results from these experiments are provided in the Experimental Results hereinafter.

In the next test the test system is Trypanosoma cruzi. Description: Trypanosoma cruzi intracellular imaging assay. Particulars: read-out: Trypanosoma cruzi pEC50 (converted). It counts as cell-based. The text has this: Assay Method for Measurement of In Vitro Inhibition of Trypanosoma cruzi. […] These experiments were run in accordance with the method of Pena et. al., Scientific Reports 5, Article number: 8771 (2015). Results from these experiments are provided in the Experimental Results hereinafter.

The next test deals with Hep G2. As to the kind of experiment: Hep G2 in-vitro cytotoxicity assay. It counts as cell-based. Particulars: Homo sapiens, HepG2, read-out: Hs HEPG2 pEC50 (converted). The text has this: In-vitro cytotoxicity studies can be carried out using Hep G2 (Human hepatocyte carcinoma, HPACC cat. no. 85011430) used as indicators for general mammalian cell toxicity. Hep G2 in-vitro cytotoxicity can be assessed using the assay procedure as described in “Use of a human-derived liver cell line for the detection of cytoprotective, antigenotoxic and cogenotoxic agents”, Volker Mersch-Sundermann, Siegfried Knasmüller, Xin-jiang Wu, Firouz Darroudi, Fekadu Kassie. J. Tox 198 (2004) 329-340) the contents of which are incorporated herein by reference.

For test [3], the target named is T2, Mycobacterium tuberculosis lysyl t-RNA synthetase (Mtb KRS) (Mycobacterium tuberculosis, UniProt P9WFU9).
T2 construct: MtbKRS1-; made in house; host or cells: E. coli BL21 (DE3)
T2 sequence (P9WFU9 whole entry): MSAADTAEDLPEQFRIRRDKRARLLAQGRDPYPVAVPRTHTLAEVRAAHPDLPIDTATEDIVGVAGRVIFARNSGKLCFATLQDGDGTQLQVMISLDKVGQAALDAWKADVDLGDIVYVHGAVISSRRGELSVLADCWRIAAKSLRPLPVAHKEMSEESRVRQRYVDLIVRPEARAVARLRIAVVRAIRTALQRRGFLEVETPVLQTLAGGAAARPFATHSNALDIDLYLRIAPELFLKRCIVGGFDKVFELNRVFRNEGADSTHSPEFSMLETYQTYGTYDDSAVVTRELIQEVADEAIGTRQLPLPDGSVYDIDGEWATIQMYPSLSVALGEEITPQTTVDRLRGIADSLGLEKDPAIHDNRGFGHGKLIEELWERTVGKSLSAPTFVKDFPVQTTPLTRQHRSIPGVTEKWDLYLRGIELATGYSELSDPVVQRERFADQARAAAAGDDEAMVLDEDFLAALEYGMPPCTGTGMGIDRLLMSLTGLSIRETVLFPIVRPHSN
Description: Mtb KRS inhibition biochemical assay (BioMol Green). Particulars: read-out: Mtb KRS pIC50 (converted).

The text below walks through data of patent US11485720B2, “Anti-infective agents” (University of Dundee, priority 2016, dated 2022).

T1 sequence (Q8IDJ8 entry or part of it, looked up, natural form): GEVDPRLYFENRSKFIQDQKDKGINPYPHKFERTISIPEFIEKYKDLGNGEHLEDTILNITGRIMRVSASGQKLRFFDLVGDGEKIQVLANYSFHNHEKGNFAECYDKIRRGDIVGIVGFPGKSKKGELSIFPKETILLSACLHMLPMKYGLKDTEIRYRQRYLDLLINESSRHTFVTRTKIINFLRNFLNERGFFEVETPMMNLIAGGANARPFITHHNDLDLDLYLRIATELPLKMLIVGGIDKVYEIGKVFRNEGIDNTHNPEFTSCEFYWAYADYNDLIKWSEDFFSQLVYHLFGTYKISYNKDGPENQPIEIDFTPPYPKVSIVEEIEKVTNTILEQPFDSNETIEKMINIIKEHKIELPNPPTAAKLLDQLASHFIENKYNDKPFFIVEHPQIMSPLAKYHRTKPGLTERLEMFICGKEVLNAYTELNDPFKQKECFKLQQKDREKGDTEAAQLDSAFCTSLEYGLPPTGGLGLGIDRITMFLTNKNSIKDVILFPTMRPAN

Turning to `Nc1cc(F)cc2c(=O)cc(C(=O)NCC3CCCCC3)oc12` [Example 99, 8-amino-N-(cyclohexylmethyl)-6-fluoro-4-oxo-chromene-2-carboxamide], in test [1], the IC50 was 50.1 nM. The EC50 in test [2] is 10 nM; in the test with Cryptosporidium parvum, 15.8 nM; in the test with Trypanosoma cruzi, 25.1 nM; in the test with Hep G2 it was 5010 nM.
As to `CCC(C)CNC(=O)c1cc(=O)c2cc(F)cc(O)c2o1` (centres unmarked) [Example 76H, 6-fluoro-8-hydroxy-N-(2-methylbutyl)-4-oxo-chromene-2-carboxamide], the IC50 in test [1] is 251 nM; in test [3], 50100 nM. Besides, in test [2], the EC50 was 251 nM.
For `Nc1cc(F)cc2c(=O)cc(C(=O)NCC3CCC(F)(F)C3)oc12` (centres unmarked) [Example 95, 8-amino-N-[(3,3-difluorocyclopentyl)methyl]-6-fluoro-4-oxo-4H-chromene-2-carboxamide], the EC50 in test [2] was 50.1 nM; with Trypanosoma cruzi, 63.1 nM.
The matching figures for `Nc1cc(F)cc2c(=O)cc(C(=O)NCC3CCC(F)(F)CC3)oc12` [Example 94, 8-amino-N-[(4,4-difluorocyclohexyl)methyl]-6-fluoro-4-oxo-4H-chromene-2-carboxamide]: 50.1 nM and 50.1 nM.
`O=C(NCC1CCCCC1)c1cc(=O)c2cc(F)ccc2o1` [Example 31, N-(cyclohexylmethyl)-6-fluoro-4-oxo-chromene-2-carboxamide]: in test [1], the IC50 is 79.4 nM. Moreover, the EC50 in test [2] is 316 nM; in the test with Cryptosporidium parvum it was 631 nM; with Trypanosoma cruzi, 126 nM; with Hep G2 it was 50100 nM.
As for `Nc1cccc2c(=O)cc(C(=O)NCC3CCCCC3)oc12` [Example 83, 8-Amino-N-(cyclohexylmethyl)-4-oxo-4H-chromene-2-carboxamide], the IC50 in test [1] is 50.1 nM. The values for the EC50 (in test [2]; with Trypanosoma cruzi; in the test with Hep G2) were 20 nM, 158 nM and 7940 nM, respectively.
Take `O=C(NCC1(O)CCCCC1)c1cc(=O)c2cc(O)ccc2o1` [Example 13, 6-hydroxy-N-[(1-hydroxycyclohexyl)methyl]-4-oxo-chromene-2-carboxamide]: the IC50 in test [1] was 79.4 nM. Moreover, the EC50 in test [2] is 50.1 nM; in the test on Cryptosporidium parvum it was 120 nM; in the test with Trypanosoma cruzi, 251 nM; in the test with Hep G2 it was 20000 nM.
With `O=C(NCC1CCCCC1)c1cc(=O)c2cc(O)ccc2o1` [Example 6, N-(cyclohexylmethyl)-6-hydroxy-4-oxo-chromene-2-carboxamide], the IC50 in test [1] was 63.1 nM. The EC50 was 158 nM in test [2], 126 nM with Cryptosporidium parvum, 20 nM in the test with Trypanosoma cruzi and 15800 nM in the test on Hep G2.
Turning to `O=C(NCC1CCC1)c1cc(=O)c2cc(F)cc(O)c2o1` [Example 76E, N-(cyclobutylmethyl)-6-fluoro-8-hydroxy-4-oxo-4H-chromene-2-carboxamide], the IC50 is 251 nM in test [1] and 31600 nM in test [3]. Besides, in test [2], the EC50 was 794 nM.
On to `O=C(NCC1(O)CCCCC1)c1cc(=O)c2cc(F)cc(F)c2o1` [Example 55, 6,8-difluoro-N-[(1-hydroxycyclohexyl)methyl]-4-oxo-chromene-2-carboxamide], for which the IC50 in test [1] is 200 nM. Moreover, the EC50 in test [2] was 398 nM; in the test on Cryptosporidium parvum, 501 nM; in the test with Hep G2, 50100 nM.
Regarding `O=C(NC1CCCC(F)(F)C1)c1cc(=O)c2cc(F)cc(O)c2o1` (centres unmarked) [Example 76C, N-(3,3-Difluorocyclohexyl)-6-fluoro-8-hydroxy-4-oxo-4H-chromene-2-carboxamide], the results for the IC50 in test [1] and in test [3] were 316 nM and 15800 nM, respectively. The EC50 in test [2] was 1000 nM; in the test on Cryptosporidium parvum, 2000 nM; in the test with Hep G2 it was 50100 nM.
With `CS(=O)(=O)Nc1cccc2c(=O)cc(C(=O)NCC3CCCCC3)oc12` [Example 84, N-(cyclohexylmethyl)-8-(methylsulfonamido)-4-oxo-4H-chromene-2-carboxamide], the IC50 in test [1] was 126 nM. The EC50 was 316 nM in test [2], 631 nM in the test with Cryptosporidium parvum and 50100 nM in the test on Hep G2.
With `O=C(NCC1CCCCC1)c1cc(=O)c2cccc(O)c2o1` [Example 12, N-(cyclohexylmethyl)-8-hydroxy-4-oxo-chromene-2-carboxamide], the figures for the EC50 with Trypanosoma cruzi and in the test with Hep G2 were 316 nM and 25100 nM, respectively.
Take `O=C(NC1CCCCC1)c1cc(=O)c2cc(F)cc(O)c2o1` [Example 76B, N-cyclohexyl-6-fluoro-8-hydroxy-4-oxo-chromene-2-carboxamide]: the IC50 is 398 nM in test [1] and 7940 nM in test [3]. Further, the EC50 in test [2] is 1580 nM.
Regarding `O=C(NCC1CCC(F)(F)CC1)c1cc(=O)c2cc(F)cc(O)c2o1` [Example 75, N-((4,4-difluorocyclohexyl)methyl)-6-fluoro-8-hydroxy-4-oxo-4H-chromene-2-carboxamide], the IC50 in test [1] was 79.4 nM. In addition, the EC50 was 200 nM in test [2], 794 nM in the test with Cryptosporidium parvum and 50100 nM in the test on Hep G2.
